What was measured:
Format in all cases: in vivo
[1] = tested on: excess apoAI expressing mice fed with high fat diet; experiment: Action of BO-653 on excess apoAI expressing mice fed with high fat diet (fatty liver and associated hepatic disease); conditions: for AST (serum) / Liver weight / Total cholesterol (serum): 0.6% BO-653 or 0.5% probucol in high fat diet, 37 weeks of feeding, mean ± standard error; for blood AST compared with high fat diet group (in words) / liver weight compared with high fat diet group (in words): drug-containing high fat diet vs high fat diet only, 37 weeks
Text: The therapeutic activity of BO-653 against fatty liver and associated hepatic disease was investigated using excess apoAI expressing mice which were fed with a high fat diet to induce fatty liver and further develop hepatic diseases.
ApoAI, i.e., apolipoprotein AI, is an apolipoprotein constituting high density lipoproteins mainly responsible for blood lipid metabolism in rodents including mice. In mice expressing excess apoAI, blood cholesterol levels are originally high. Thus, even if they are fed with a high fat diet for causing the onset of fatty liver, increases in blood cholesterol are relatively small. Such mice are advantageous in that the influence of changes in blood cholesterol on the results of the test need not be considered in evaluating the therapeutic activity of BO-653 against fatty liver and associated hepatic disease.
(§1) Mice expressing excess apoAI (female, 10 to 11 weeks of age, purchased from Jackson Laboratories) were divided into 4 groups of N-animals. The animals of the respective groups were fed with a normal diet, a high fat diet, a 0.6% BO-653-containing high fat diet (hereinafter referred to as B+ high fat diet), and a 0.5% probucol-containing high fat diet (hereinafter referred to as P+ high fat diet).
(§2) The B+high fat diet and the P+ high fat diet were prepared by removing cellulose in amounts corresponding to 0.60% and 0.50%, respectively, from the high fat diet of the above composition, and adding the corresponding amounts of BO-653 and probucol, respectively, to the remaining composition. Probucol is a liposoluble antioxidant.
(§3) Serum was separated from the collected blood, and AST and total cholesterol in the serum were measured with an autoanalyzer (COBS FARAII ROCHE). The entire body of the animal subjected to the laparotomy and blood collection was perfused with physiological saline, and the weight of the liver was measured.

[2] = tested on: C57BL/6J mice fed with high fat diet; experiment: Same high fat diet test in C57BL/6J mice expressing apolipoprotein AI normally; conditions: B+ high fat diet (0.6% BO-653), only high fat diet: 275±31
Method: as §1, §2, §3
(§4) The same tests were conducted using C57BL/6J mice (female, 6 weeks of age, purchased from CLEA Japan) expressing apolipoprotein AI normally, and apoAI deficiency mice (female, 10 to 11 weeks of age, purchased from Jackson Laboratories) expressing no apolipoprotein AI in contrast to the animals in the present Test Example.

apoE deficiency mice = experiment: Effect of BO-653 in apoE deficiency mice
Method: Besides, the effect of BO-653 was tested using apoE deficiency mice. These mice are known as mice showing high blood total cholesterol levels even on a normal diet and, at the same time, show high blood AST even on a normal diet.

[3] = tested on: apoAI deficiency mice fed with high fat diet; experiment: Same high fat diet test in apoAI deficiency mice; conditions: B+ high fat diet (0.6% BO-653), only high fat diet: 159±10
Method: as §1, §2, §3, §4

SMILES | AST (serum) [1] | Liver weight [1] | Total cholesterol (serum) [1] | blood AST compared with high fat diet group (in words) [1] | liver weight compared with high fat diet group (in words) [1] | serum AST [2] | suppression of AST leakage from liver cells, action relative to probucol ([1]; decline in blood AST, B+ vs P+ high fat diet) | blood AST (apoE deficiency mice) | blood total cholesterol values (apoE deficiency mice) | blood ASL [3]
CC(C)(Sc1cc(C(C)(C)C)c(O)c(C(C)(C)C)c1)Sc1cc(C(C)(C)C)c(O)c(C(C)(C)C)c1 [probucol, reference compound] | 218 ± 18 U/L | 2923 ± 185 mg | 203 ± 10 mg/dL | not as great as those in the B+ high fat diet group | not as great as those in the B+ high fat diet group |  |  |  |  | 
CCCCCC1(CCCCC)Cc2c(cc(C(C)(C)C)c(O)c2C(C)(C)C)O1 [BO-653, 4,6-di-t-butyl-5-hydroxy-2,2-di-n-pentyl-2,3-dihydrobenzofuran] | 96 ± 7 U/L | 2789 ± 106 mg | 353 ± 32 mg/dL | greatly lower | significantly less | 181±18 | several times as high as that of probucol | lowered | without involving changes | 85±8

Reference: patent US20070066681A1, “Pharmaceutical composition for treating fatty liver or hepatic disease” (CHUGAI SEIYAKU KAUSHIKI KAISHA, priority 2003, published 2007)
